Several values for one entry are separate records, joined by “and”; a condition that tells them apart may be missing. Equal entries are not always repeated. Activity calls are given as the source filed them.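 How the source made its calls: active means compounds lowering the signal whose fitted half-maximal concentration is at most twice the top tested dose; inconclusive means flat curve with 30 to 70% inhibition, or poor fit; inactive means the rest.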
Test system: C. neoformans growth, alamar blue, 24 h
Assay: antifungal activity, alamar blue, dry powder, counter-screen for C. neoformans cell wall antifungals, dose response (AID 743128)
Settings: not given

Point of comparison: `COC(=O)C1=C(C)N(Cc2ccc(F)cc2)C(=S)NC1c1cccc(F)c1` (configuration not stated), AC50 18.3 µM. Against it:
- CCOC(=O)c1c(NC(=O)CN2CCN(C)CC2)sc(C)c1-c1ccc(C)cc1 — within 1.5-fold, 25.7 µM
- Cc1ccc(OCCn2c(SCCO)nc3ccccc32)c(C(C)C)c1 — within 1.5-fold, 25.1 µM
- Cc1ccc2c(c1)[nH]c(=S)n2CCOc1ccccc1 — within 1.5-fold, 24.3 µM
- Cc1ccc(C(C)C)c(OCCn2c(=S)[nH]c3ccccc32)c1 — 4.4-fold lower, 4.14 µM
- COC(=O)C1=C(C)N(Cc2ccc(Br)cc2)C(=S)NC1c1ccc(OC)cc1 (configuration not stated) — 2-fold lower, 9.31 µM
- Cc1ccccc1OCCn1c(=S)[nH]c2ccccc21 — 2.3-fold lower, 8.04 µM
- Fc1ccccc1OCCn1c(=S)[nH]c2ccccc21 — within 1.5-fold, 25.4 µM
- CCOC(=O)c1c(-c2ccc(C(C)(C)C)cc2)csc1NC(=O)CN1CCN(C)CC1 — within 1.5-fold, 15 µM
- S=c1[nH]c2ccccc2n1CCOc1ccccc1 — within 1.5-fold, 24.9 µM
- Cc1ccc(OCCn2c(=S)[nH]c3ccccc32)cc1 — 1.9-fold lower, 9.48 µM
- Fc1cccc2c1[nH]c(=S)n2CCOc1ccccc1 — within 1.5-fold, 25.4 µM
- COC(=O)C1=C(C)N(Cc2ccc(Br)cc2)C(=S)NC1c1ccc(F)cc1 (configuration not stated) — 3.7-fold lower, 4.9 µM
- S=c1[nH]c2cccc(Cl)c2n1CCOc1ccccc1 — 2.9-fold lower, 6.35 µM
- CCOC(=O)c1c(-c2ccc(C(C)(C)C)cc2)csc1NC(=O)CN1CCN(CC)CC1 — within 1.5-fold, 15.7 µM
- COC(=O)C1=C(C)N(Cc2ccccc2)C(=S)NC1c1ccc(Br)cc1 (configuration not stated) — 2.3-fold lower, 8.1 µM
- CCOC(=O)c1c(-c2ccc(-c3ccccc3)cc2)csc1NC(=O)CNCCN(C)C — within 1.5-fold, 21.7 µM
- S=c1[nH]c2ccccc2n1CCOc1ccc(Cl)cc1 — 1.7-fold lower, 10.9 µM
- COC(=O)C1=C(C)N(Cc2ccc(Cl)cc2)C(=S)NC1c1ccc(Br)cc1 (configuration not stated) — 9.3-fold lower, 1.97 µM
- CCOc1ccc(OCCn2c(=S)[nH]c3ccccc32)cc1 — within 1.5-fold, 25.5 µM

With `Cc1ccc(OCCn2c(=S)[nH]c3ccccc32)c(C(C)C)c1` the AC50 was 5.33 µM and 5.68 µM.

Test system: not listed separately
Assay: as above
Settings: C. neoformans growth, alamar blue, 24 h; at 35 µM (top of the series)

In the case of `O=c1[nH]c2ccccc2n1CCOc1ccccc1`, the activity change, negative = inhibition was -1.57% (inactive) and -23.3% (inactive).
In the case of `c1ccc(OCCn2cnc3ccccc32)cc1`, the activity change, negative = inhibition was -10.7% (inactive).
In the case of `CCOC(=O)c1c(-c2ccc(OC)cc2)csc1NC(=O)CN(C)CC(=O)N(C)C`, the activity change, negative = inhibition was -14.4% (inactive).
In the case of `CCOC(=O)c1c(-c2ccc(F)cc2)csc1NC(=O)CN1CCN(C)CC1`, the activity change, negative = inhibition was -11.2% (inactive).
In the case of `CCOC(=O)c1c(NC(=O)CNCCN(C)C)sc(C)c1-c1ccccc1`, the activity change, negative = inhibition was -16.3% (inactive).
For `Cc1cccc(OCCn2c(=S)[nH]c3cc(C(F)(F)F)ccc32)c1`, the activity change, negative = inhibition was 8.48% (inactive).

Source: PubChem BioAssay AID743128 (Broad Institute, 2013)
